Measurements taken from PubChem BioAssay AID180 (DTP/NCI, 2004).
“And” between values parts separate entries of the source, which are not always exact repeats. Equal values may be shown once.

Tested on: BDF1 mice, Adenocarcinoma 755 s.c., tumor weight T/C
Experiment: NCI In Vivo Anticancer Drug Screen. Data for tumor model Adenocarcinoma 755 (subcutaneous) in B6D2F1 (BDF1) mice
Conditions: endpoint: mean tumor weight, higher = larger tumour
Procedure: The antitumor activity of compounds was measured in mice bearing transplantable tumors. Survival or tumor size were measured and the results are expressed as the measurement made in the treated group (T) divided by the measurement made in the vehicle treated control group (C). The tumor model used in this assay is Adenocarcinoma 755 (subcutaneous) in B6D2F1 (BDF1) mice

Question: With `CC(=O)OCC(=O)[C@@]1(O)CC[C@H]2[C@@H]3CCC4=CC(=O)CC[C@]4(C)[C@H]3[C@@H](O)C[C@@]21C` as the compound, how does the T/C (dose: 1.13 mg/kg/injection, schedule: Q01DX011 (sc), vehicle: steriod suspending solution) read?
Answer: 225 % of control

Question: And the T/C (dose: 2.25 mg/kg/injection, schedule: Q01DX011 (sc), vehicle: steriod suspending solution)?
Answer: 109 % of control

Question: And the T/C (dose: 2.5 mg/kg/injection, schedule: Q01DX011 (ip), vehicle: steriod suspending solution)?
Answer: 60 % of control

Question: What about the T/C (dose: 3.75 mg/kg/injection, schedule: Q01DX011 (sc), vehicle: steriod suspending solution) of the same compound?
Answer: 117 % of control

Question: And the T/C (dose: 4.5 mg/kg/injection, schedule: Q01DX011 (sc), vehicle: steriod suspending solution)?
Answer: 153 % of control

Question: And the T/C (dose: 5.0 mg/kg/injection, schedule: Q01DX011 (ip), vehicle: steriod suspending solution)?
Answer: 73 % of control

Question: And the T/C (dose: 5.0 mg/kg/injection, schedule: Q01DX011 (sc), vehicle: steriod suspending solution)?
Answer: 56 % of control

Question: What about the T/C (dose: 7.5 mg/kg/injection, schedule: Q01DX011 (sc), vehicle: steriod suspending solution) of the same compound?
Answer: 85 % of control

Question: And the T/C (dose: 9.0 mg/kg/injection, schedule: Q01DX011 (sc), vehicle: steriod suspending solution)?
Answer: 54 % of control

Question: And the T/C (dose: 10.0 mg/kg/injection, schedule: Q01DX006 (iv), vehicle: steriod suspending solution)?
Answer: 88 % of control

Question: What about the T/C (dose: 10.0 mg/kg/injection, schedule: Q01DX011 (ip), vehicle: steriod suspending solution) of the same compound?
Answer: 50 % of control

Question: And the T/C (dose: 10.0 mg/kg/injection, schedule: Q01DX011 (sc), vehicle: steriod suspending solution)?
Answer: 33 % of control

Question: And the T/C (dose: 20.0 mg/kg/injection, schedule: Q01DX006 (iv), vehicle: steriod suspending solution)?
Answer: 32 % of control

Question: What about the T/C (dose: 20.0 mg/kg/injection, schedule: Q01DX011 (ip), vehicle: steriod suspending solution) of the same compound?
Answer: 17 % of control

Question: And the T/C (dose: 20.0 mg/kg/injection, schedule: Q01DX011 (sc), vehicle: steriod suspending solution)?
Answer: 63 % of control

Question: And the T/C (dose: 30.0 mg/kg/injection, schedule: Q01DX011 (sc), vehicle: steriod suspending solution)?
Answer: 19 % of control and 28 % of control

Question: What about the T/C (dose: 31.25 mg/kg/injection, schedule: Q01DX011 (sc), vehicle: steriod suspending solution) of the same compound?
Answer: 19 % of control

Question: And the T/C (dose: 40.0 mg/kg/injection, schedule: Q01DX006 (iv), vehicle: steriod suspending solution)?
Answer: 66 % of control

Question: And the T/C (dose: 40.0 mg/kg/injection, schedule: Q01DX011 (sc), vehicle: steriod suspending solution)?
Answer: 15 % of control

Question: What about the T/C (dose: 45.0 mg/kg/injection, schedule: Q01DX011 (sc), vehicle: steriod suspending solution) of the same compound?
Answer: 27 % of control

Question: And the T/C (dose: 50.0 mg/kg/injection, schedule: Q01DX011 (sc), vehicle: steriod suspending solution)?
Answer: 16 % of control

Question: What about the T/C (dose: 62.5 mg/kg/injection, schedule: Q01DX011 (sc), vehicle: steriod suspending solution) of the same compound?
Answer: 21 % of control

Question: And the T/C (dose: 70.0 mg/kg/injection, schedule: Q01DX001 (sc), vehicle: steriod suspending solution)?
Answer: 34 % of control and 41 % of control

Question: What about the T/C (dose: 70.0 mg/kg/injection, schedule: Q07DX002 (sc), vehicle: steriod suspending solution) of the same compound?
Answer: 17 % of control

Question: What about the T/C (dose: 80.0 mg/kg/injection, schedule: Q01DX006 (iv), vehicle: steriod suspending solution) of the same compound?
Answer: 19 % of control

Question: What about the T/C (dose: 125.0 mg/kg/injection, schedule: Q01DX011 (sc), vehicle: steriod suspending solution) of the same compound?
Answer: 2 % of control

Question: What about the T/C (dose: 140.0 mg/kg/injection, schedule: Q01DX001 (sc), vehicle: steriod suspending solution) of the same compound?
Answer: 23 % of control and 43 % of control

Question: And the T/C (dose: 160.0 mg/kg/injection, schedule: Q01DX006 (iv), vehicle: steriod suspending solution)?
Answer: 28 % of control

Question: What about the T/C (dose: 280.0 mg/kg/injection, schedule: Q01DX001 (sc), vehicle: steriod suspending solution) of the same compound?
Answer: 32 % of control and 46 % of control

Question: And the T/C (dose: 280.0 mg/kg/injection, schedule: Q07DX002 (sc), vehicle: steriod suspending solution)?
Answer: 14 % of control

Question: With `CS(=O)(=O)OCC1OC(OCc2ccccc2)CC1O` (stereo unspecified) as the compound, how does the T/C (dose: 25.0 mg/kg/injection, schedule: Q01DX011 (ip), vehicle: saline) read?
Answer: 102 % of control

Question: Which T/C (dose: 3.9 mg/kg/injection, schedule: Q01DX011 (ip), vehicle: methylcellulose (MC)) does the source give for `CC(=O)CSc1nc(N)nc2nc[nH]c12` here?
Answer: 32 % of control

Question: What about the T/C (dose: 7.8 mg/kg/injection, schedule: Q01DX011 (ip), vehicle: methylcellulose (MC)) of the same compound?
Answer: 6 % of control

Question: And the T/C (dose: 15.6 mg/kg/injection, schedule: Q01DX011 (ip), vehicle: methylcellulose (MC))?
Answer: 7 % of control

Question: For `Cc1nc(Cl)c(C#N)c(C(F)(F)F)c1[N+](=O)[O-]`, which T/C (dose: 30.0 mg/kg/injection, schedule: Q01DX011 (ip), vehicle: carboxymethylcellulose (CMC)) is on record?
Answer: 59 % of control

Question: Which T/C (dose: 0.75 mg/kg/injection, schedule: Q01DX011 (ip), vehicle: carboxymethylcellulose (CMC)) does the source give for `CCn1cnc2c(=S)nc[nH]c21` here?
Answer: 100 % of control

Question: What about the T/C (dose: 0.75 mg/kg/injection, schedule: Q#A X022 (ip), vehicle: carboxymethylcellulose (CMC)) of the same compound?
Answer: 18 % of control

Question: What about the T/C (dose: 1.5 mg/kg/injection, schedule: Q01DX006 (iv), vehicle: carboxymethylcellulose (CMC)) of the same compound?
Answer: 121 % of control

Question: And the T/C (dose: 1.5 mg/kg/injection, schedule: Q01DX011 (im), vehicle: carboxymethylcellulose (CMC))?
Answer: 14 % of control

Question: What about the T/C (dose: 1.5 mg/kg/injection, schedule: Q01DX011 (sc), vehicle: carboxymethylcellulose (CMC)) of the same compound?
Answer: 39 % of control

Question: And the T/C (dose: 1.5 mg/kg/injection, schedule: Q#A X022 (ip), vehicle: carboxymethylcellulose (CMC))?
Answer: 1 % of control

Question: And the T/C (dose: 3.0 mg/kg/injection, schedule: Q01DX006 (iv), vehicle: carboxymethylcellulose (CMC))?
Answer: 22 % of control

Question: And the T/C (dose: 3.0 mg/kg/injection, schedule: Q01DX011 (im), vehicle: carboxymethylcellulose (CMC))?
Answer: 5 % of control

Question: And the T/C (dose: 3.0 mg/kg/injection, schedule: Q01DX011 (ip), vehicle: carboxymethylcellulose (CMC))?
Answer: 6 % of control and 19 % of control

Question: And the T/C (dose: 3.0 mg/kg/injection, schedule: Q01DX011 (sc), vehicle: carboxymethylcellulose (CMC))?
Answer: 17 % of control

Question: And the T/C (dose: 3.0 mg/kg/injection, schedule: Q#A X022 (ip), vehicle: carboxymethylcellulose (CMC))?
Answer: 1 % of control

Question: What about the T/C (dose: 4.5 mg/kg/injection, schedule: Q03DX004 (ip), vehicle: carboxymethylcellulose (CMC)) of the same compound?
Answer: 24 % of control

Question: What about the T/C (dose: 4.6 mg/kg/injection, schedule: Q01DX011 (ip), vehicle: carboxymethylcellulose (CMC)) of the same compound?
Answer: 58 % of control

Question: And the T/C (dose: 4.62 mg/kg/injection, schedule: Q01DX011 (ip), vehicle: carboxymethylcellulose (CMC))?
Answer: 1 % of control

Question: What about the T/C (dose: 6.0 mg/kg/injection, schedule: Q01DX006 (iv), vehicle: carboxymethylcellulose (CMC)) of the same compound?
Answer: 15 % of control

Question: What about the T/C (dose: 6.0 mg/kg/injection, schedule: Q01DX011 (im), vehicle: carboxymethylcellulose (CMC)) of the same compound?
Answer: 1 % of control

Question: And the T/C (dose: 6.0 mg/kg/injection, schedule: Q01DX011 (ip), vehicle: carboxymethylcellulose (CMC))?
Answer: 4 % of control and 13 % of control

Question: What about the T/C (dose: 6.0 mg/kg/injection, schedule: Q01DX011 (sc), vehicle: carboxymethylcellulose (CMC)) of the same compound?
Answer: 3 % of control

Question: And the T/C (dose: 6.0 mg/kg/injection, schedule: Q#A X022 (ip), vehicle: carboxymethylcellulose (CMC))?
Answer: 1 % of control

Question: What about the T/C (dose: 9.0 mg/kg/injection, schedule: Q03DX004 (ip), vehicle: carboxymethylcellulose (CMC)) of the same compound?
Answer: 23 % of control

Question: And the T/C (dose: 9.2 mg/kg/injection, schedule: Q01DX011 (ip), vehicle: carboxymethylcellulose (CMC))?
Answer: 20 % of control

Question: And the T/C (dose: 9.25 mg/kg/injection, schedule: Q01DX011 (ip), vehicle: carboxymethylcellulose (CMC))?
Answer: 1 % of control

Question: What about the T/C (dose: 9.25 mg/kg/injection, schedule: Q01DX011 (oral), vehicle: carboxymethylcellulose (CMC)) of the same compound?
Answer: 1 % of control

Question: What about the T/C (dose: 11.0 mg/kg/injection, schedule: Q07DX002 (ip), vehicle: carboxymethylcellulose (CMC)) of the same compound?
Answer: 53 % of control

Question: What about the T/C (dose: 12.0 mg/kg/injection, schedule: Q01DX006 (iv), vehicle: carboxymethylcellulose (CMC)) of the same compound?
Answer: 3 % of control

Question: And the T/C (dose: 12.0 mg/kg/injection, schedule: Q01DX011 (ip), vehicle: carboxymethylcellulose (CMC))?
Answer: 3 % of control

Question: And the T/C (dose: 18.0 mg/kg/injection, schedule: Q03DX004 (ip), vehicle: carboxymethylcellulose (CMC))?
Answer: 4 % of control

Question: And the T/C (dose: 18.5 mg/kg/injection, schedule: Q01DX011 (ip), vehicle: carboxymethylcellulose (CMC))?
Answer: 6 % of control

Question: And the T/C (dose: 22.0 mg/kg/injection, schedule: Q07DX002 (ip), vehicle: carboxymethylcellulose (CMC))?
Answer: 33 % of control

Question: What about the T/C (dose: 25.0 mg/kg/injection, schedule: Q01DX006 (iv), vehicle: carboxymethylcellulose (CMC)) of the same compound?
Answer: 2 % of control

Question: What about the T/C (dose: 25.0 mg/kg/injection, schedule: Q01DX011 (ip), vehicle: carboxymethylcellulose (CMC)) of the same compound?
Answer: 1 % of control

Question: And the T/C (dose: 25.0 mg/kg/injection, schedule: Q01DX011 (sc), vehicle: carboxymethylcellulose (CMC))?
Answer: 1 % of control

Question: And the T/C (dose: 37.0 mg/kg/injection, schedule: Q01DX011 (ip), vehicle: carboxymethylcellulose (CMC))?
Answer: 2 % of control

Question: What about the T/C (dose: 37.0 mg/kg/injection, schedule: Q03DX004 (ip), vehicle: carboxymethylcellulose (CMC)) of the same compound?
Answer: 1 % of control

Question: What about the T/C (dose: 44.0 mg/kg/injection, schedule: Q07DX002 (ip), vehicle: carboxymethylcellulose (CMC)) of the same compound?
Answer: 8 % of control

Question: And the T/C (dose: 75.0 mg/kg/injection, schedule: Q03DX004 (ip), vehicle: carboxymethylcellulose (CMC))?
Answer: 1 % of control

Question: What about the T/C (dose: 87.0 mg/kg/injection, schedule: Q07DX002 (ip), vehicle: carboxymethylcellulose (CMC)) of the same compound?
Answer: 4 % of control and 8 % of control

Question: What about the T/C (dose: 350.0 mg/kg/injection, schedule: Q07DX002 (ip), vehicle: carboxymethylcellulose (CMC)) of the same compound?
Answer: 2 % of control

Question: How did the T/C (dose: 500.0 mg/kg/injection, schedule: Q#A X022 (oral), vehicle: water) turn out when `OB(O)O` was run?
Answer: 39 % of control and 45 % of control

Question: And the T/C (dose: 750.0 mg/kg/injection, schedule: Q#A X022 (oral), vehicle: water)?
Answer: 16 % of control

Question: And the T/C (dose: 1000.0 mg/kg/injection, schedule: Q#A X022 (oral), vehicle: water)?
Answer: 9 % of control
